# Reference: patent US12577234B2, “Antagonists of the muscarinic acetylcholine receptor M4” (Vanderbilt University, priority 2017, dated 2026)
# Molecular target: T1, human mAChR M4 (Homo sapiens, UniProt P08173)
# T1 construct: expressed in transfected cells; host or cells: CHO-K1 (ATCC), stably co-expressing chimeric G protein Gqi5
# T1 sequence (P08173 1-479): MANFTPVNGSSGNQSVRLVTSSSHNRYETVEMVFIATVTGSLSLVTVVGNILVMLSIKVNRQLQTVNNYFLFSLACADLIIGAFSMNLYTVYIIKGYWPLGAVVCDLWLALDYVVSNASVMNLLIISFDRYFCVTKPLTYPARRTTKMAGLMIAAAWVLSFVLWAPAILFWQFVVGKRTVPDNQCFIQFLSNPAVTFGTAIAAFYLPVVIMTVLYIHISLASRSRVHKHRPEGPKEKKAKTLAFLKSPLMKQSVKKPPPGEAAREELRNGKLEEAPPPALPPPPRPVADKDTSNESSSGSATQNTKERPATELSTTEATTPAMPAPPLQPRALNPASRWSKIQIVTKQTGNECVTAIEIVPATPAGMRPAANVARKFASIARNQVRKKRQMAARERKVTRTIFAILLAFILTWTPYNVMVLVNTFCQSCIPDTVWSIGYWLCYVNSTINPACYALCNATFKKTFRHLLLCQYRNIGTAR
# Assay: mAChR M4 cell-based functional assay (calcium mobilization, EC80 acetylcholine), human M4
# Details: for IC50: M4/Gqi5/CHO-K1 cells, decrease of EC80 acetylcholine response; for Emin: human M4, % ACh maximum at 30 μM
# Procedure, shortened: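 CHO-K1 cells stably expressing human M4 with chimeric Gqi5; intracellular calcium rise read on FDSS as fluorescence static ratio at 1 Hz. Compounds in 10-point 1:3 dilution series; IC50 taken as concentration-dependent decrease of the EC80 acetylcholine response, four-parameter logistic fit.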
Human M4 Emin (Table 10),IC50 (Table 10),IC50 (Table 9),Emin (Table 9),SMILES
6%,4 nM,,,"COc1cccc(-c2ccc(N[C@H]3C[C@@H]4CN(CC5CCOCC5)C[C@@H]4C3)nn2)c1 [Compound 200, (3aR,5s,6aS)-N-[6-(3-methoxyphenyl)pyridazin-3-yl]-2-(tetrahydropyran-4-ylmethyl)-3,3a,4,5,6,6a-hexahydro-1H-cyclopenta[c]pyrrol-5-amine]"
3%,29.7 nM,,,"Fc1cccc(CN2C[C@H]3C[C@H](Nc4ccc(-c5cc(F)ccc5Cl)nn4)C[C@H]3C2)c1 [Compound 175, (3aR,5s,6aS)-N-[6-(2-chloro-5-fluoro-phenyl)pyridazin-3-yl]-2-[(3-fluorophenyl)methyl]-3,3a,4,5,6,6a-hexahydro-1H-cyclopenta[c]pyrrol-5-amine]"
4%,1.87 nM,,,"c1cc2c(cc1-c1ccc(N[C@H]3C[C@@H]4CN(CC5CCOCC5)C[C@@H]4C3)nn1)OCO2 [Compound 182, (3aR,5s,6aS)-N-[6-(1,3-benzodioxol-5-yl)pyridazin-3-yl]-2-(tetrahydropyran-4-ylmethyl)-3,3a,4,5,6,6a-hexahydro-1H-cyclopenta[c]pyrrol-5-amine]"
5%,0.579 nM,,,"COc1ccccc1-c1ccc(N[C@H]2C[C@@H]3CN(CC4CCOCC4)C[C@@H]3C2)nn1 [Compound 199, (3aR,5s,6aS)-N-[6-(2-methoxyphenyl)pyridazin-3-yl]-2-(tetrahydropyran-4-ylmethyl)-3,3a,4,5,6,6a-hexahydro-1H-cyclopenta[c]pyrrol-5-amine]"
3%,68.9 nM,,,"Fc1ccc(Cl)c(-c2ccc(N[C@H]3C[C@@H]4CN(Cc5cn6ccccc6n5)C[C@@H]4C3)nn2)c1 [Compound 165, (3aR,5s,6aS)-N-[6-(2-chloro-5-fluoro-phenyl)pyridazin-3-yl]-2-(imidazo[1,2-a]pyridin-2-ylmethyl)-3,3a,4,5,6,6a-hexahydro-1H-cyclopenta[c]pyrrol-5-amine]"
3%,26.1 nM,,,"Fc1ccc(Cl)c(-c2ccc(N[C@H]3C[C@@H]4CN(Cc5ccco5)C[C@@H]4C3)nn2)c1 [Compound 176, (3aR,5s,6aS)-N-[6-(2-chloro-5-fluoro-phenyl)pyridazin-3-yl]-2-(2-furylmethyl)-3,3a,4,5,6,6a-hexahydro-1H-cyclopenta[c]pyrrol-5-amine]"
,,4.8 nM,,CCCC(C)CN1C[C@H]2C[C@H](Nc3ccc(-c4cn(C)nc4C)nn3)C[C@H]2C1 (stereo partly shown) [compound 14]
5%,0.517 nM,,,"Fc1cccc(-c2ccc(N[C@H]3C[C@@H]4CN(CC5CCOCC5)C[C@@H]4C3)nn2)c1Cl [Compound 202, (3aR,5s,6aS)-N-[6-(2-chloro-3-fluoro-phenyl)pyridazin-3-yl]-2-(tetrahydropyran-4-ylmethyl)-3,3a,4,5,6,6a-hexahydro-1H-cyclopenta[c]pyrrol-5-amine]"

# The next lines start with the compound.
SMILES,Human M4 Emin (Table 10),IC50 (Table 10),IC50 (Table 9),Emin (Table 9)
"CC(C)(C)CCN1C[C@H]2C[C@H](Oc3ccc(-c4ccc(C(F)(F)F)cc4)nn3)C[C@H]2C1 [Compound 139, (3aR,5s,6aS)-2-(3,3-dimethylbutyl)-5-[6-[4-(trifluoromethyl)phenyl]pyridazin-3-yl]oxy-3,3a,4,5,6,6a-hexahydro-1H-cyclopenta[c]pyrrole]",4%,1560 nM,,
"Cc1cnn(C)c1-c1ccc(OCC2C[C@@H]3CN(Cc4ccc5c(c4)OCO5)C[C@@H]3C2)nn1 (stereo partly drawn) [Compound 91, (3aR,6aS)-2-(1,3-benzodioxol-5-ylmethyl)-5-[[6-(2,4-dimethylpyrazol-3-yl)pyridazin-3-yl]oxymethyl]-3,3a,4,5,6,6a-hexahydro-1H-cyclopenta[c]pyrrole]",,,371 nM,4.18%
"Cc1nn(C)cc1-c1ccc(N[C@@H]2C[C@@H]3CN(CC4CCCCC4)C[C@@H]3C2)c(F)c1F [Compound 43, (3aR,5r,6aS)-2-(cyclohexylmethyl)-N-[4-(1,3-dimethylpyrazol-4-yl)-2,3-difluoro-phenyl]-3,3a,4,5,6,6a-hexahydro-1H-cyclopenta[c]pyrrol-5-amine]",,,1210 nM,5.25%
"CC(=O)Nc1ccc(-c2ccc(N[C@H]3C[C@@H]4CN(CCC(C)(C)C)C[C@@H]4C3)c(F)c2F)cc1 [Compound 148, N-[4-[4-[[(3aR,5s,6aS)-2-(3,3-dimethylbutyl)-3,3a,4,5,6,6a-hexahydro-1H-cyclopenta[c]pyrrol-5-yl]amino]-2,3-difluoro-phenyl]phenyl]acetamide]",4%,997 nM,,
"Fc1ccc(Cl)c(-c2ccc(N[C@H]3C[C@@H]4CN(CC5CCCOC5)C[C@@H]4C3)nn2)c1 (stereo partly drawn) [Compound 33, (3aR,5s,6aS)-N-[6-(2-chloro-5-fluoro-phenyl)pyridazin-3-yl]-2-(tetrahydropyran-3-ylmethyl)-3,3a,4,5,6,6a-hexahydro-1H-cyclopenta[c]pyrrol-5-amine]",,,1.2 nM,6.3%
"Fc1ccc(CN2C[C@H]3CC(COc4ccc(-c5cc(F)ccc5Cl)nn4)C[C@H]3C2)cc1 (stereo partly drawn) [Compound 116, (3aR,6aS)-5-[[6-(2-chloro-5-fluoro-phenyl)pyridazin-3-yl]oxymethyl]-2-[(4-fluorophenyl)methyl]-3,3a,4,5,6,6a-hexahydro-1H-cyclopenta[c]pyrrole]",,,3380 nM,6.49%
"Cc1cnn(C)c1-c1ccc(NC[C@H]2C[C@@H]3CN(CC4CCOCC4)C[C@@H]3C2)nn1 [Compound 66, N-[[(3aR,5s,6aS)-2-(tetrahydropyran-4-ylmethyl)-3,3a,4,5,6,6a-hexahydro-1H-cyclopenta[c]pyrrol-5-yl]methyl]-6-(2,4-dimethylpyrazol-3-yl)pyridazin-3-amine]",,,3790 nM,17.2%
"Cc1nn(C)cc1-c1ccc(O[C@@H]2C[C@@H]3CN(CCC(C)(C)C)C[C@@H]3C2)nn1 [Compound 48, (3aR,5r,6aS)-2-(3,3-dimethylbutyl)-5-[6-(1,3-dimethylpyrazol-4-yl)pyridazin-3-yl]oxy-3,3a,4,5,6,6a-hexahydro-1H-cyclopenta[c]pyrrole]",,,361 nM,3.79%
"CCC(C)CN1C[C@H]2CC(COc3ccc(-c4c(C)cnn4C)nn3)C[C@H]2C1 (stereo partly drawn) [Compound 81, (3aR,6aS)-5-[[6-(2,4-dimethylpyrazol-3-yl)pyridazin-3-yl]oxymethyl]-2-(2-methylbutyl)-3,3a,4,5,6,6a-hexahydro-1H-cyclopenta[c]pyrrole]",,,904 nM,4.54%
"Fc1ccc(Cl)c(-c2ccc(N[C@H]3C[C@@H]4CN(Cc5ccncc5)C[C@@H]4C3)nn2)c1 [Compound 162, (3aR,5s,6aS)-N-[6-(2-chloro-5-fluoro-phenyl)pyridazin-3-yl]-2-(4-pyridylmethyl)-3,3a,4,5,6,6a-hexahydro-1H-cyclopenta[c]pyrrol-5-amine]",3%,4.52 nM,,
"CC(C)(C)CCN1C[C@H]2C[C@H](Nc3ccc(-c4cc(F)ccc4Cl)nn3)C[C@H]2C1 [Compound 28, (3aR,5s,6aS)-N-[6-(2-chloro-5-fluoro-phenyl)pyridazin-3-yl]-2-(3,3-dimethylbutyl)-3,3a,4,5,6,6a-hexahydro-1H-cyclopenta[c]pyrrol-5-amine]",,,10 nM,3.53%
